Reference: US10906888B2, “Pyrimidine carboxamides as inhibitors of Vanin-1 enzyme” (Pfizer Inc., priority 2016, dated 2021)

What follows are molecules tested against human vanin-1 (Homo sapiens (Human), UniProt O95497) (assay: Human Vanin-1 Enzyme Assay 1). Conditions: 25 pM human vanin-1, 50 uM pantetheine 7-amino-4-trifluoromethylcoumarin substrate.
Type: biochemical
Experimental: Human Vanin-1Enzyme Assay 1.
The in vitro assay measures enzymatic cleavage of the fluorescently-labeled vanin substrate, pantetheine 7-amino-4-trifluoromethylcoumarin, by human vanin-1.
The vanin-1 protein was prepared in-house from a construct expressing the extracellular domain of human vanin-1 (GenBank ID NM_004666) preceded N-terminally by the honey bee melittin signal peptide, a GSG linker sequence, a His6× tag and a FLAG tag. The secreted, soluble enzyme was purified from the conditioned medium from a CHO cell line stably expressing the resulting protein. Enzyme purification was performed through sequential Ni NTA and size-exclusion chromatography steps.
Intermediate concentrations were prepared by diluting in DMSO in a four-fold series for a total of 11 data points.
To begin the assay 100 nL was transferred from the compound plate to the assay plate. Next, 15 μL of the vanin-1 working solution were transferred to the assay plate. The inhibitor and enzyme were incubated at room temperature for 30 minutes. The enzyme reaction was then initiated by the addition of 5 μL of 200 μM pantetheine 7-amino-4-trifluoromethylcoumarin prepared in assay buffer. […] The final concentration of DMSO was 0.5%.

human vanin-1, sequence (O95497 22-491): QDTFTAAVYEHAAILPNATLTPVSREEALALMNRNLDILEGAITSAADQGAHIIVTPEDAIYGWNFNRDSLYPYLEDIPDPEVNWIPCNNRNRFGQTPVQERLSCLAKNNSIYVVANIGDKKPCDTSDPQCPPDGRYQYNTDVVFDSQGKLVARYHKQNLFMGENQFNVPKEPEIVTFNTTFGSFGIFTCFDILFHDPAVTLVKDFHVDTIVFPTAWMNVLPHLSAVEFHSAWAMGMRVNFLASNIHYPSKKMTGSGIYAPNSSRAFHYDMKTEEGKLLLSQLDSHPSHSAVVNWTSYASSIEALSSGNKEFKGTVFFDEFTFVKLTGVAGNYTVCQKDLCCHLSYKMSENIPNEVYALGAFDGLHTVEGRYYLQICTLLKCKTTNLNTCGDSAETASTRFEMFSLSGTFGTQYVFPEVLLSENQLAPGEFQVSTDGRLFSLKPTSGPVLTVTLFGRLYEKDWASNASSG

| SMILES | IC50 |
| --- | --- |
| O=C(c1cnc(OCc2cncnc2)nc1)N1CCC2(CCOCC2)C1 [Example 203, 8-oxa-2-azaspiro[4.5]dec-2-yl[2-(pyrimidin-5-ylmethoxy)pyrimidin-5-yl]methanone] | 1090 nM |
| O=C(c1cnc(NCc2cccnc2)nc1)N1CCC(CO)C1 (stereo not drawn) [Example 11] | 81.7 nM |
| CC(=O)N1CCN(C(=O)c2cnc(NCc3cccnc3)nc2)CC1 [Example 24] | 749 nM |
| C[C@H](Nc1ncc(C(=O)N2CCN3CCC[C@H]3C2)cn1)c1cnccn1 [Example 125] | 3.04 nM |
| O=C(c1cnc(NC2(c3ccccn3)CC2)nc1)N1CCC2(CCOCC2)C1 [Example 177] | 0.551 nM |
| O=C(c1cnc(NCc2cnccn2)nc1)N1CCN2CCC[C@H]2C1 [Example 129] | 65.9 nM |
| C[C@H](Nc1ncc(C(=O)N2CCN3C[C@@H](F)C[C@H]3C2)cn1)c1cnccn1 [Example 121] | 3.95 nM |
| O=C(c1cnc(NCc2cncnc2)nc1)N1CCCCC1 [Example 187] | 83.7 nM |
| C[C@@H](Nc1ncc(C(=O)N2CCC3(CCOCC3)C2)cn1)c1ccnnc1 [Example 154] | 337 nM |
| Cc1cnc(C(C)(C)Nc2ncc(C(=O)N3CC4(CCOCC4)C3)cn2)cn1 [Example 180] | 0.196 nM |
| O=C(c1cnc(NCc2cccnc2)nc1)N1CCC(C(F)(F)F)C1 (stereo not drawn) [Example 7] | 17.9 nM |
| CC1(CO)CCN(C(=O)c2cnc(NCc3cccnc3)nc2)CC1 [Example 15] | 220 nM |
| C[C@@H](Nc1ncc(C(=O)N2CCC3(CCOCC3)C2)cn1)c1ccncn1 [Example 156] | 838 nM |
| O=C(c1cnc(NCc2cnccn2)nc1)N1CCN2CCC[C@@H]2C1 [Example 128] | 384 nM |
| C[C@H](Nc1ncc(C(=O)N2CCC3(CCOCC3)C2)cn1)c1ccnnc1 [Example 153] | 4.29 nM |
| O=C(c1cnc(NCc2cccnc2)nc1)N1CCC2(CCOCC2)C1 [Example 1] | 1.31 nM |
| O=C(c1cnc(NCc2cccnc2)nc1)N1CCOCC(O)C1 (stereo not drawn) [Example 20] | 453 nM |
| CN1C[C@@H]2C[C@H]1CN2C(=O)c1cnc(NCc2cnccn2)nc1 [Example 112] | > 18900 nM |
| O=C(c1cnc(NCc2cnccn2)nc1)N1CCN2C[C@@H](F)C[C@H]2C1 [Example 110] | 171 nM |

| SMILES | IC50 |
| --- | --- |
| Cc1ncc(C(C)Nc2ncc(C(=O)N3CCC4(CCOCC4)C3)cn2)cn1 (stereo not drawn) [Example 159] | 1.29 nM |
| O=C(c1cnc(NCc2cccnc2)nc1)N1[C@@H]2CC[C@H]1C[C@@H](O)C2 [Example 28] | 1550 nM |
| O=C(c1cnc(NCc2cnc(C(F)(F)F)nc2)nc1)N1CCC2(CCOCC2)C1 [Example 168] | 192 nM |
| C[C@H](Nc1ncc(C(=O)N2CC3CN(C)CC3C2)cn1)c1cnccn1 (stereo partly drawn) [Example 127] | 587 nM |
| O=C(c1cnc(NCc2cccnc2)nc1)N1CC2CCC(CC2)C1 [Example 27] | 1370 nM |
| CC1(O)CCN(C(=O)c2cnc(NCc3cccnc3)nc2)CC1 [Example 9] | 48.1 nM |
| O=C(c1cnc(NC2(c3cnccn3)CCC2)nc1)N1CC2(CCOCC2)C1 [Example 138] | 0.043 nM |
| O=C(c1cnc(NCc2cccnc2)nc1)N1CCC(F)(CO)CC1 [Example 17] | 328 nM |
| O=C(c1cnc(NCc2cncnc2C(F)(F)F)nc1)N1CC2(CCOCC2)C1 [Example 167] | 57.7 nM |
| CC1(O)CCCN(C(=O)c2cnc(NCc3cccnc3)nc2)C1 (stereo not drawn) [Example 26] | 1230 nM |
| CCN1CCC2(CCN(C(=O)c3cnc(N[C@@H](C)c4cnccn4)nc3)C2)C1 (stereo partly drawn) [Example 117] | 5.11 nM |
| Cc1ccc(C(C)Nc2ncc(C(=O)N3CC4(CCOCC4)C3)cn2)cn1 (stereo not drawn) [Example 163] | 1.77 nM |
| C[C@H](Nc1ncc(C(=O)N2CC[C@@H](N3CCOCC3)C2)cn1)c1cnccn1 [Example 120] | 84.1 nM |
| O=C(c1cnc(NCc2cccnc2)nc1)N1C[C@@H]2[C@@H](CO)[C@@H]2C1 [Example 18] | 385 nM |
| O=C(c1cnc(NCc2cccnc2)nc1)N1Cc2ccccc2C1 [Example 19] | 407 nM |
| C[C@@H](Nc1ncc(C(=O)N2CC3(CCOCC3)C2)cn1)c1cnccn1 [Example 148] | 54.5 nM |
| O=C(c1cnc(NCc2cnccn2)nc1)N1CCN2CC(F)(F)C[C@H]2C1 [Example 116] | 113 nM |
| C[C@H](Nc1ncc(C(=O)N2CCC3(CN(C)C3)C2)cn1)c1cnccn1 [Example 122] | 43.9 nM |

Continued, values first:

| IC50 | SMILES |
| --- | --- |
| 2.21 nM | CCC1(OC)CCN(C(=O)c2cnc(NC3(c4cncnc4)CC3)nc2)C1 (stereo not drawn) [Example 192] |
| 2850 nM | O=C(c1cnc(NC2(c3cncnc3)CC2)nc1)N1CCC(C(O)C(F)(F)F)CC1 (stereo not drawn) [Example 60] |
| 2270 nM | C[C@@H]1CN(C(=O)c2cnc(NC3(c4cncnc4)CC3)nc2)C[C@H](C)C1O (stereo partly drawn) [Example 44] |
| 156 nM | N#CCC1CCCCN1C(=O)c1cnc(NCc2cccnc2)nc1 (stereo not drawn) [Example 14] |
| 1.85 nM | O=C(c1cnc(NC2(c3cncnc3)CC2)nc1)N1CC2CCCC2C1 (stereo not drawn) [Example 69] |
| 829 nM | O=C(c1cnc(NC2(c3cncnc3)CC2)nc1)N1CCCC1C(F)(F)F (stereo not drawn) [Example 73] |
| 135 nM | O=C(c1cnc(NC2(c3cncnc3)CC2)nc1)N1CCCC2(CCCC[C@H]2O)C1 (stereo partly drawn) [Example 100] |
| 62.6 nM | CC1COCCN(C(=O)c2cnc(NC3(c4cncnc4)CC3)nc2)C1 (stereo not drawn) [Example 38] |
| 102 nM | O=C(c1cnc(NC2(c3cncnc3)CC2)nc1)N1CCC(C(F)F)CC1 [Example 81] |
| 590 nM | C[C@@H]1COCCN1C(=O)c1cnc(NC2(c3cncnc3)CC2)nc1 [Example 103] |
| 167 nM | COCC1COCCN(C(=O)c2cnc(NC3(c4cncnc4)CC3)nc2)C1 (stereo not drawn) [Example 85] |
| 40.5 nM | O=C(c1cnc(NC2(c3cncnc3)CC2)nc1)N1CCCC(F)C1 (stereo not drawn) [Example 93] |
| 7.71 nM | O=C(c1cnc(NCc2cncnc2)nc1)N1CCC2(CCOCC2)C1 [Example 185] |
| 28.7 nM | O=C(c1cnc(NC2(c3cncnc3)CC2)nc1)N1C[C@H](O)C[C@H](C2CC2)C1 [Example 88] |
| 10.7 nM | N#CC1CCCN(C(=O)c2cnc(NC3(c4cncnc4)CC3)nc2)C1 (stereo not drawn) [Example 195] |
| 19.9 nM | O=C(c1cnc(NC2(c3cncnc3)CC2)nc1)N1CCC2(CCCCO2)CC1 [Example 50] |
| 0.743 nM | CC(C)(Nc1ncc(C(=O)N2CC3(CCOCC3)C2)cn1)c1cncnc1 [Example 144] |
| 36 nM | O=C(c1cnc(NC2(c3cncnc3)CC2)nc1)N1CC2CCC1CO2 (stereo not drawn) [Example 105] |
| 316 nM | COC1CCOC2(CCN(C(=O)c3cnc(NC4(c5cncnc5)CC4)nc3)CC2)C1 (stereo not drawn) [Example 91] |
| 0.283 nM | CC1CC2(CCN(C(=O)c3cnc(NC4(c5cncnc5)CC4)nc3)C2)CC(C)O1 (stereo not drawn) [Example 54] |
| 0.504 nM | CCC1(CC)CCN(C(=O)c2cnc(NC3(c4cncnc4)CC3)nc2)C1 [Example 37] |
| 1600 nM | CC(C)(O)C1CCN(C(=O)c2cnc(NC3(c4cncnc4)CC3)nc2)CC1 [Example 78] |

| IC50 | SMILES |
| --- | --- |
| 1.35 nM | O=C(c1cnc(NC2(c3cncnc3)CC2)nc1)N1CCC(c2cc[nH]n2)C1 (stereo not drawn) [Example 43] |
| 0.955 nM | C[C@H](Nc1ncc(C(=O)N2CC3(CCOCC3)C2)cn1)c1cncnc1 [Example 151] |
| 24.9 nM | O=C(c1cnc(NC2(c3cncnc3)CC2)nc1)N1CCC2(CCCO2)CC1 [Example 56] |
| 147 nM | O=C(c1cnc(NC2(c3cncnc3)CC2)nc1)N1CCCC[C@@H]1CO [Example 82] |
| 559 nM | O=C(c1cnc(NCc2cccnc2)nc1)N1CCCC(O)C1 (stereo not drawn) [Example 22] |
| 60.3 nM | O=C(c1cnc(NC2(c3cncnc3)CC2)nc1)N1CCOC2(CCCC2)C1 [Example 52] |
| 348 nM | O=C(c1cnc(NC2(c3cncnc3)CC2)nc1)N1CCC(O)(C(F)(F)F)CC1 [Example 90] |
| 5.41 nM | COCC1CCCN(C(=O)c2cnc(NC3(c4cncnc4)CC3)nc2)C1 (stereo not drawn) [Example 71] |
| 5.22 nM | N#CC1CCCN(C(=O)c2cnc(NC3(c4cncnc4)CC3)nc2)C1 (single isomer, unassigned) [Example 197] |
| 231 nM | O=C(c1cnc(NC2(c3cncnc3)CC2)nc1)N1CCC[C@H]1CO [Example 66] |
| 1850 nM | O=C(c1cnc(NC2(c3cncnc3)CC2)nc1)N1CCCC[C@H]1CO [Example 45] |
| 38.6 nM | C[C@H]1CN(C(=O)c2cnc(NC3(c4cncnc4)CC3)nc2)CCO1 [Example 107] |
| 45 nM | O=C(c1cnc(NC2(c3cncnc3)CC2)nc1)N1CCN2CCCCCC2C1 (stereo not drawn) [Example 41] |
| 12.2 nM | O=C(c1cnc(NC2(c3cncnc3)CC2)nc1)N1C[C@@H](CO)[C@H](C(F)(F)F)C1 [Example 53] |
| 55.1 nM | CC1(CO)CCN(C(=O)c2cnc(NC3(c4cncnc4)CC3)nc2)CC1 [Example 83] |
| 21.3 nM | CO[C@@H]1CCN(C(=O)c2cnc(NC3(c4cncnc4)CC3)nc2)C1 [Example 79] |
| 20.2 nM | O=C(c1cnc(NC2(c3cncnc3)CC2)nc1)N1CCC(C(F)(F)F)C1 (single isomer, unassigned) [Example 194] |
| 200 nM | O=C(c1cnc(NCCc2cncnc2)nc1)N1CCC2(CCOCC2)C1 [Example 181] |
| 148 nM | CC(C)[C@H]1C[C@H](O)CN(C(=O)c2cnc(NC3(c4cncnc4)CC3)nc2)C1 [Example 72] |
| 421 nM | O=C(c1cnc(NC2(c3cncnc3)CC2)nc1)N1CCC(C(F)(F)F)CC1 [Example 63] |
| 29.6 nM | C[C@H]1CCCN1C(=O)c1cnc(NC2(c3cncnc3)CC2)nc1 [Example 47] |
| 2520 nM | C[C@H]1COCCN1C(=O)c1cnc(NC2(c3cncnc3)CC2)nc1 [Example 55] |
